The record followed here is ChEMBL document CHEMBL4680069, “Itaconate is a covalent inhibitor of the Mycobacterium tuberculosis isocitrate lyase” (RSC Med Chem, 2021).

The test system of experiment [1] is Mycobacterium tuberculosis. The experiment is described as follows: Binding affinity to N-terminal polyhis-tagged Mycobacterium tuberculosis ICL1 C191S mutant expressed in Escherichia coli BL21 (DE3) assessed as compound-protein covalent adduct formation by measuring molecular mass at 1 mM after 12 hrs in presence of MgCl2 by LC-MS analysis.
Experiment [2] can be described thus: Binding affinity to N-terminal polyhis-tagged Mycobacterium tuberculosis ICL1 C191S mutant expressed in Escherichia coli BL21 (DE3) in presence of MgCl2 by NMR binding analysis.

SMILES strings stand for the structures. Calls of active or inactive are those of the source. The rule behind the calls is not given here.

Usually Kd stands for a measure of binding affinity in units of concentration. Turning to `C=C(CC(=O)O)C(=O)O` [ITACONATE], the result in experiment [1] was Active. The Kd in experiment [2] stood at 155 µM.
